Where no end group is shown, it is not given here.
What was measured:
[1] = test system: primary hippocampal neurons; assay: mEPSCs & mIPSCs in cultured primary hippocampal neurons (wild type); assay type: cell-based, mouse; settings: for effect on mEPSC frequency (in words) / effect on mIPSC frequency (in words): 250 nM each
Description: mEPSCs & mIPSCs are measured in cultured primary hippocampal neurons at baseline and following acute application of agonists. Excitatory terminals selectively express the sushi domain-containing GABABR1a isoform (ref18), where it functions to inhibit neurotransmitter release (ref 24). Acute exposure of primary hippocampal neurons from wild type mice to 30μM baclofen, a GABABR agonist, or 250 nM sAPPα (Fc cleaved) reduces the frequency of miniature excitatory postsynaptic currents (mEPSCs) by 68% (FIG. 8 a,b) and 39% (FIG. 8 c,d), respectively, with no effect on mEPSC amplitude (FIG. 8e). […] Acute application of 30 μM baclofen or 250 nM purified sAPPα reduces the frequency of miniature inhibitory postsynaptic currents (mIPSCs) by 63% (FIG. 8a, 9a) and 44% (FIG. 8c, 9b), respectively, which is blocked by pretreatment with the GABABR antagonist CGP55845 (CGP, 5 μM) (FIG. 8f, 9d). Application of sAPPα causes a minor (14%) reduction on mIPSC amplitude (FIG. 8e, 9c). […] Baclofen is known to reduce the frequencies of mEPSCs and mIPSCs, which we have also confirmed. […] To confirm that the agonist is acting through GABABR1a, the agonist is tested in cultures with shRNA mediated knockdown of GABABR1a or antisense oligonucleotides mediated exon skipping of the exon encoding the Sushi domain 1 of GABABR1a. Antagonists are tested by treatment in combination with the agonist, Baclofen. […] As an antagonist we test an antibody against the sushi domain sequence (SEQ ID No: 5): […] SWTDMDTPSRCV. An antibody specifically binding to this domain which acts as an antagonist increases the frequencies of mEPSCs and mIPSCs. sAPPα also reduces mEPSC and mIPSC frequency in App/Aplp1 dKO cultures (FIG. 8j, 9f), excluding the possibility that sAPPα interferes with a complex of full-length APP and GABABR1 to exert its effect on GABABR signaling.
Hippocampal neurons were cultured from E18 C57/B16 wild type mice or APP/APLP1 dKO mice (provided by Ulrike Muller46) and plated on poly-D-lysine (Millipore), and laminin (Invitrogen) coated coverslips (Nalge Nunc International). Neurons were maintained in Neurobasal medium (Invitrogen) supplemented with B27, glucose, glutamax, penicillin/streptomycin (Invitrogen) and 25 μM β-mercaptoethanol.
Single neurons from wild type or APP/APLP1 null mutant embryos (E18) were recorded within the large neuronal network at DIV 12-15. The intracellular whole-cell pipette medium contained (in mM): 136 KCl, 18 HEPES, 4 Na-ATP, 4.6 MgCl2, 15 Creatine Phosphate, 1 EGTA and 50 U/ml Phospocreatine Kinase (300 mOsm, pH 7.30). Regular external solution contained 2 mM/2 mM Ca2+/Mg2+(in mM: 140 NaCl, 2.4 KCl, 2 CaCl2), 2 MgCl2, 10 HEPES, 14 Glucose (300 mOsm, pH 7.30)) and TTX (1 μM). Pharmacological reagents (30 μM baclofen, 5 μM CGP), sAPLP1, full length sAPP and sAPP derived peptides (250 nM each) were bath applied (dissolved in external medium described above) using a separate gravity driven application inlet. Recordings were done in whole cell voltage clamp configuration at −70 mV with a double EPC-10 amplifier (HEKA Elektronik) under control of Patchmaster v2×32 software (HEKA Elektronik). Currents were low-pass filtered at 3 kHz and stored at 20 kHz. Patch pipettes were pulled from borosilicate glass using a multi-step puller (P-1000; Sutter Instruments). Pipette resistance ranged from 3 to 5 MΩ and was compensated to 75-80%. Only cells with series resistances <15 MΩ were included in analysis. All recordings were done at room temperature. Spontaneous events were detected using Mini Analysis program (Synaptosoft). mEPSCs and mIPSCs were separated on the basis of their distinct decay kinetics, using a threshold of 5 ms47. Baseline was determined from an average of 60 sec of recordings prior to protein or drug treatment. Effect of treatment was determined from an average of 30 sec recordings after 140 sec of protein or drug treatment.

[2] = test system: cultured hippocampal neurons; assay: FM1-43 dye labeling of presynaptic vesicle recycling; assay type: cell-based, mouse; settings: 1 μM sAPPα in the presence of CGP
Description: We assessed the effect of sAPPα on synaptic vesicle recycling (ref6) using the activity-dependent dye FM1-43. We measured density (D) and intensity (ΔF) of FM1-43 uptake in presynaptic vesicles turned over by stimulation of 30 action potentials (APs) at a rate of 1 Hz in cultured hippocampal neurons.
The experiments were performed in mature (15-28 days in vitro) cultures. Hippocampal neurons were imaged using a FV1000 spectral Olympus confocal microscope using a 60×1.2 NA water immersion objective. The experiments were conducted at room temperature in extracellular Tyrode solution containing (in mM): NaCl, 145; KCl, 3; glucose, 15; HEPES, 10; MgCl2, 1.2; CaCl2), 1.2; pH adjusted to 7.4 with NaOH. For FM-based imaging and analysis, activity-dependent FM1-43 (10 μM) styryl dye was used to estimate basal synaptic vesicle recycling using previously described protocol48. Briefly, action potentials were elicited by passing 50 mA constant current for 1 ms through two platinum wires, separated by ˜7 mm and close to the surface of the coverslip. The extracellular medium contained non-selective blocker of glutamate receptors (0.5 mM kynurenic acid) to block recurrent neuronal activity. 30 stimuli at 1 Hz were applied during FM1-43 loading, while 800 stimuli at 2 Hz during unloading. The fluorescence of individual synapses was determined from the difference between images obtained after staining and after destining (ΔF). Detection of signals was done using custom-written scripts in MATLAB (Mathworks) as described before48.

[3] = test system: Schaffer collateral (SC) synapses in mouse hippocampus; assay: fEPSP field recordings at Schaffer collateral synapses in hippocampal slices; assay type: cell-based
Description: We assessed the effect of sAPPα on the synaptic properties of Schaffer collateral (SC) synapses in mouse hippocampus. […] As change in probability of neurotransmitter release inversely correlates with a change in short-term facilitation, we applied a burst of 5 stimuli at 3 different frequencies (20, 50, and 100 Hz) to induce short-term facilitation at the SC. […] Preincubation with the GABABR antagonist CGP54626 (CGP, 10 μM) for 20 min before the incubation with sAPPα blocked its effects on the peak amplitude of the fESPS and the input/output slopes (FIG. 10f-g). Accordingly, CGP occluded sAPPα-induced augmentation of short-term facilitation at 20, 50, and 100 Hz burst frequencies (FIG. 10h-j).
On the day of recording the brain of a 2-month-old Balb/c male mouse was quickly removed and 400 μm-thick horizontal slices were prepared in an ice-cold oxygenated buffer containing (in mM): sucrose, 182; KCl, 2.5; MgSO4, 2; NaH2PO4, 1.25; NaHCO3, 25; CaCl2), 0.8; MgCl2, 5; glucose, 25; ascorbate, 1; HEPES, 20. The slicing procedure was performed using a Leica VT1200 vibrating microtome. Slices were then transferred to a submerged recovery chamber at room temperature containing oxygenated (95% 02 and 5% C02) storage artificial cerebrospinal fluid (ACSF) for 30 min before the incubations (see below). The storage ACSF contained, in mM: NaCl, 100; KCl, 2.5; MgSO4, 2; NaH2PO4, 1.25; NaHCO3, 25; CaCl2), 1.2; MgCl2, 3; glucose, 20; ascorbate, 1; sodium pyruvate,3 and HEPES, 20. The slices were incubated in the incubation chambers perfused with oxygenated storage ACSF containing the experimental agents for 90 min before performing field recordings: In the incubation chamber, control slices were perfused with normal storage ACSF while sAPPα slices were perfused with storage ACSF containing 1 μM sAPPα. CGP slices were perfused with storage ACSF containing 10 μM CGP54626 (Tocris). CGP+sAPPα slices were preincubated in the chamber perfused with ACSF+CGP before being transferred into the chamber perfused with storage ACSF implemented with 10 μM CGP54626+1 μM sAPPα. All recordings were performed at 32-33° C. in a recording chamber perfused with ACSF (4 ml/min) on the stage of an Olympus BX51WI microscope equipped with IR optics and oblique illumination. Recording ACSF contains, in mM: NaCl, 129; KCl, 2.5; CaCl2), 1.2; MgCl2, 1.2; NaHCO3, 25; NaH2PO4, 1.25; glucose, 15. Stimulation of the Schaffer-collateral was delivered through a glass suction electrode (10-20 μm tip) filled with ACSF. fEPSPs were recorded using a glass pipette containing ACSF (1-2 MΩ) from proximal synapses in the CA1 stratum radiatum. Field recording experiments were analyzed using Clampfit.

## NCC(CC(=O)O)c1ccc(Cl)cc1 (stereo not shown) [baclofen, reference compound]
[1]; 30 µM
  reduction of mEPSC frequency: 68%
  reduction of mIPSC frequency: 63%

## C[C@H](NC[C@H](O)CP(=O)(O)CC1CCCCC1)c1ccc(Cl)c(Cl)c1 [CGP54626, reference compound]
[2]
  occlusion of the sAPPα effect on presynaptic strength: occluded
[3]; 10 μM preincubation for 20 min before sAPPα
  block of sAPPα effects on peak fEPSP amplitude and input/output slopes: blocked
[3]; 10 μM, 20, 50 and 100 Hz burst frequencies
  occlusion of sAPPα-induced augmentation of short-term facilitation: occluded

## DDSDVWWGGADTDYADG [17mer peptide, DDSDVWWGGADTDYADG]
[1]; acute application
  effect on mEPSC frequency (in words): reduces mEPSC frequency to a similar degree as sAPPα
  effect on mIPSC frequency (in words): reduce mIPSC frequency to a similar extent as sAPPα

## C[C@H](NC[C@H](O)CP(=O)(O)Cc1ccccc1)c1ccc(Cl)c(Cl)c1 [CGP55845, reference compound]
[1]; pretreatment with antagonist 5 μM
  block of the reduction of mIPSC frequency: blocked
[1]; pretreatment with antagonist 5 μM, then 250 nM sAPPα
  block of the sAPPα effect on mEPSC frequency: blocks the effect of sAPPα on mEPSC frequency

B1: ExD-AcD: extension domain-acidic domain fragment of APP695 (195-298aa), non-Fc protein used in ITC and functional assays (protein)
chain: SVDSADAEEDDSDVWWGGADTDYADGGEDKVVEVAEEEEVADVEEEEADDDEDVEDGDEVEEEAEEPYEEATERTTSTATTTTTTTESVEEVVRVPTTAASTPD
modifications: left off: a dimerising Fc or GST; small tags and cut ends
notes: extension domain-acidic domain fragment of APP695 (195-298aa), non-Fc protein used in ITC and functional assays
[1]; acute application
  effect on mEPSC frequency (in words): reduces mEPSC frequency to a similar degree as sAPPα
  effect on mIPSC frequency (in words): reduce mIPSC frequency to a similar extent as sAPPα

B2: sAPLP1: soluble ectodomain of APP-like protein 1 (protein, UniProt Q03157 39-584, looked up)
extracellular domain: NLAVGSPSAAEAPGSAQVAGLCGRLTLHRDLRTGRWEPDPQRSRRCLLDPQRVLEYCRQMYPELHIARVEQAAQAIPMERWCGGTRSGRCAHPHHEVVPFHCLPGEFVSEALLVPEGCRFLHQERMDQCESSTRRHQEAQEACSSQGLILHGSGMLLPCGSDRFRGVEYVCCPPPATPNPSGMAAGDPSTRSWPLGGRAEGGEDEEEVESFPQPVDDYFVEPPQAEEEEEEEEERAPPPSSHTPVMVSRVTPTPRPTDGVDVYFGMPGEIGEHEGFLRAKMDLEERRMRQINEVMREWAMADSQSKNLPKADRQALNEHFQSILQTLEEQVSGERQRLVETHATRVIALINDQRRAALEGFLAALQGDPPQAERVLMALRRYLRAEQKEQRHTLRHYQHVAAVDPEKAQQMRFQVQTHLQVIEERMNQSLGLLDQNPHLAQELRPQIQELLLAEHLGPSELDASVPGSSSEDKGSLQPPESKDDPPVTLPKGSTDQESSSSGREKLTPLEQYEQKVNASAPRGFPFHSSDIQRDELAPSGTGVSRE
modifications: extracellular domain
[1]; acute application
  effect on mEPSC frequency (in words): not
[1]; acute application, 30 μM baclofen, 250 nM proteins
  reduction of mIPSC frequency: 17%

Source: US10829528B2, “Therapeutic agents for neurological and psychiatric disorders” (VIB VZW, priority 2016, dated 2020)
